BindingDB's records for doi:10.1016/0960-894X(95)00091-7 (1995)

Legend:
[1] = Compound was tested for its affinity towards Alpha-2 adrenergic receptor
[2] = Compound was tested for its ability inhibit forskolin-stimulated activity of adenylate cyclase coupled to human 5-HT 1D-beta receptor in CHO-K1 cells
[3] = Compound was tested for its ability inhibit forskolin-stimulated activity of adenylate cyclase coupled to human 5-hydroxytryptamine 1D receptor beta in CHO-K1 cells; value ranges from 0.24-0.55
[4] = Compound was tested for its ability inhibit forskolin-stimulated activity of adenylate cyclase coupled to human 5-hydroxytryptamine 1D receptor beta in CHO-K1 cells; value ranges from 2.8-6.5
[5] = Binding affinity towards cloned human 5-hydroxytryptamine 1D receptor beta was determined
[6] = Compound was tested for its ability inhibit forskolin-stimulated activity of adenylate cyclase coupled to human 5-HT 1D-beta receptor in CHO-K1 cells; remark: listed apart in the source
[7] = Compound was tested for its ability inhibit forskolin-stimulated activity of adenylate cyclase coupled to human 5-hydroxytryptamine 1D receptor beta in CHO-K1 cells; value ranges from 0.24-0.55; remark: listed apart in the source

**Q.** With Cc1ccccc1N1CCN(C(=O)COc2ccc3[nH]cc(CCN)c3c2)CC1 as the compound, how does the IC50 [1] read?
**A.** > 10000 nM

**Q.** Which EC50 [2] does the source give for CCCCCCCCCOc1ccc2[nH]cc(CCN)c2c1 [2-(5-Nonyloxy-1H-indol-3-yl)-ethylamine] here?
**A.** 68 nM

**Q.** With NCCc1c[nH]c2ccc(OCC(=O)N3CCN(c4cccc5ccccc45)CC3)cc12 [2-[3-(2-Amino-ethyl)-1H-indol-5-yloxy]-1-(4-naphthalen-1-yl-piperazin-1-yl)-ethanone] as the compound, how does the Ki [3] read?
**A.** 0.52 nM

**Q.** And the IC50 [1]?
**A.** > 1000 nM

**Q.** And the EC50 [4]?
**A.** 2.8 nM

**Q.** Which Ki [5] does the source give for NCCc1c[nH]c2ccc(OCC(=O)N3CCN(c4ccccc4)CC3)cc12 [2-[3-(2-Amino-ethyl)-1H-indol-5-yloxy]-1-(4-phenyl-piperazin-1-yl)-ethanone] here?
**A.** 0.6 nM

**Q.** What about the EC50 [6] of the same compound?
**A.** 0.45 nM

**Q.** Which EC50 [7] does the source give for COc1cccc(N2CCN(C(=O)COc3ccc4[nH]cc(CCN)c4c3)CC2)c1 [2-[3-(2-Amino-ethyl)-1H-indol-5-yloxy]-1-[4-(3-methoxy-phenyl)-piperazin-1-yl]-ethanone] here?
**A.** 0.24 nM

**Q.** And the Ki [5]?
**A.** 0.4 nM
